Experimental data from ChEMBL document CHEMBL1157210, “Neurosteroid analogues. 12. Potent enhancement of GABA-mediated chloride currents at GABAA receptors by ent-androgens” (Eur J Med Chem, 2008).
pEC50, pIC50: −log10 of the molar value.

Columns and labels:
[1] = Displacement of […] from GABAA receptor in rat brain; format: tissue-based
[2] = test system: Xenopus laevis; assay: Anesthetic effect in Xenopus laevis assessed as loss of righting response; format: functional, organism-based
[3] = test system: Xenopus laevis; assay: Anesthetic effect in Xenopus laevis assessed as loss of swimming response; format: functional, organism-based
[4] = organism: Rattus norvegicus; assay: Activity at rat GABAA alpha-1-beta-2-gamma-2L receptor expressed in Xenopus laevis assessed as ratio of current in treated to non-treated oocyte at 0.1 uM by electrophysiology
[5] = organism: Rattus norvegicus; assay: Activity at rat GABAA alpha-1-beta-2-gamma-2L receptor expressed in Xenopus laevis expressed in assessed as ratio of current in treated to non-treated oocyte at 1 uM by electrophysiology
[6] = organism: Rattus norvegicus; assay: Activity at rat GABAA alpha-1-beta-2-gamma-2L receptor expressed in Xenopus laevis expressed in assessed as ratio of current in treated to non-treated oocyte at 10 uM by electrophysiology
[7] = organism: Rattus norvegicus; assay: Activity at rat GABAA alpha-1-beta-2-gamma-2L receptor expressed in Xenopus laevis assessed as ratio of current in drug-treated to GABA-treated oocyte at 10 uM by electrophysiology

SMILES	pIC50 [1]	pEC50 [2]	pEC50 [3]	Ratio [4]	Ratio [5]	Ratio [6]	Ratio [7]
C[C@@]12CC[C@H](O)C[C@H]1CC[C@@H]1[C@@H]2CC[C@]2(C)[C@H]1CC[C@]21CO1	6.33	5.97	5.57	2.62	15.9	26.3	0.1
C[C@@]12CC[C@H](O)C[C@@H]1CC[C@@H]1[C@@H]2CC[C@@]2(C)C(=O)CC[C@@H]12	6.42	5.71	5.05	1.4	2.34	14.1	0.09
CC(=O)[C@H]1CC[C@H]2[C@@H]3CC[C@@H]4C[C@H](O)CC[C@]4(C)[C@H]3CC[C@]12C [ELTANOLONE]	7.15	7.22	6.52	1.2	2.82	9.77	0.06
C[C@]12CC[C@@H](O)C[C@H]1CC[C@@H]1[C@@H]2CC[C@@]2(C)[C@H]1CC[C@@]21CO1	6.66	6.00	5.76	1.28	5.17	25.4	0.03
C[C@]12CC[C@@H](O)C[C@@H]1CC[C@@H]1[C@@H]2CC[C@@]2(C)[C@H]1CC[C@@]21CO1	6.96	5.87	5.56	3.11	21.9	33.7	0.22
CC(=O)[C@@H]1CC[C@H]2[C@@H]3CC[C@H]4C[C@@H](O)CC[C@@]4(C)[C@H]3CC[C@@]12C	6.55	7.15	6.05	1.28	2.82	7.92	0.06
C[C@]12CC[C@@H](O)C[C@@H]1CC[C@@H]1[C@@H]2CC[C@]2(C)C(=O)CC[C@@H]12 [ANDROSTERONE]	6.39	5.47		0.97	1.41	5.44	0.02
CC(=O)[C@H]1CC[C@H]2[C@@H]3CC[C@H]4C[C@H](O)CC[C@]4(C)[C@H]3CC[C@]12C [BREXANOLONE]	7.13	6.38	5.26	1.26	3.89	9.65	0.37
C[C@@]12CC[C@H](O)C[C@H]1CC[C@@H]1[C@@H]2CC[C@@]2(C)C(=O)CC[C@@H]12	6.51	5.85	5.26	1.27	3.66	18.9	0.03
CC(=O)[C@@H]1CC[C@H]2[C@@H]3CC[C@@H]4C[C@@H](O)CC[C@@]4(C)[C@H]3CC[C@@]12C	5.72	6.01	< 5.30	0.95	0.92	1.17	0.02
C[C@]12CC[C@@H](O)C[C@H]1CC[C@@H]1[C@@H]2CC[C@]2(C)C(=O)CC[C@@H]12 [ETIOCHOLANOLONE]	5.38			0.89	0.87	1.39	0
C[C@@]12CC[C@H](O)C[C@@H]1CC[C@@H]1[C@@H]2CC[C@]2(C)[C@H]1CC[C@]21CO1	6.41	5.76	5.56	1.86	10.5	20.8	0.12
